Source: patent US12268660B2, “Oral pharmaceutical formulations of bitter compounds for pulmonary hypertension” (Aardvark Therapeutics Inc., priority 2018, dated 2025)
Counter-ions that a name gives are not always drawn. Like-named read-outs stand apart in the source and are kept apart here.

Legend:
[1] = Solubility of test compounds (choice of control media); details: water or DMSO
[2] = system: human primary smooth muscle cells (PVSMC); details: endothelin-1 100 nM; for synergy in combination with SIN: bitter agent 1 mM with low SIN doses (10 μM)
Procedure: An in vitro model using human primary smooth muscle cells (PVSMC) were stimulated to contract with 100 nM endothelin-1, then treated with various test compounds alone and in combination with the PDE-5 inhibitor sildenafil, approved to treat PAH. The concentration used were 3-CQL at 1 mM, DB at 1 mM, DS at 1 mM and SIN (sildenafil) at 10 μM. The controls were 0.5% and 1% DMSO in media because DB is water-soluble but DS, 3-CQL and SIN are DMSO soluble.

primary pulmonary SMCs = experiment: Second experiment: primary pulmonary SMCs induced to contract with 10 μM phenylephernine (PE); assay type: cell-based; details: PE 10 μM; for synergy in combination with SIN: bitter agent with low SIN doses
Procedure: In a second experiment, primary pulmonary SMCs were induced to contract using 10 μM phenylephernine (PE). PE was added after a baseline reading. The test compounds were added after a second timepoint and 800-1300 cells were assayed per trace, starting with FIG. 6.

[3] = cited from earlier work
TAS2R subtypes = details: cited from earlier work
[4] = SIN by itself at low doses (10 μM)

Row | solubility [1] | Compound | synergy in combination with SIN [2] | synergy in combination with SIN (primary pulmonary SMCs) | TAS2R subtypes activated (number) (TAS2R subtypes) | also measured
1 | DMSO soluble | O=C(/C=C/c1ccc(O)c(O)c1)O[C@@H]1C[C@]2(O)C[C@@H](OC2=O)[C@@H]1O [3-CQL, 3-caffeoylquinic-1,5-lactone] | synergy | possibly | – | –
2 | – | CN1CCc2cccc3c2[C@H]1Cc1ccc(O)c(O)c1-3 [Apomorphine, 5,6,6a,7-Tetrahydro-6-methyl-4H-dibenzo[de,g]quinoline-10,11-diol hydrochloride] | – | – | – | oral availability [3]: ~4%
3 | – | CC[N+](CC)(CC(=O)Nc1c(C)cccc1C)Cc1ccccc1.O=C([O-])c1ccccc1 [DB, Denatonium Benzoate] | synergy | synergy | 8 | potency in reversal from peak contraction of the PVSMCs ([2]; DB alone (1 mM)): not potent
4 | – | CC[N+](CC)(CC(=O)Nc1c(C)cccc1C)Cc1ccccc1 [DS, Denatonium Saccharide] | synergy | synergy | – | –
5 | DMSO soluble | CCCc1nn(C)c2c(=O)[nH]c(-c3cc(S(=O)(=O)N4CCN(C)CC4)ccc3OCC)nc12 [SIN, sildenafil, reference compound] | – | – | – | efficacy in reversal from peak contraction of the PVSMCs ([2]; SIN at 100 μM): extremely effective; efficacy in reversal from peak contraction of the PVSMCs [2, 4]: not effective; in vitro efficacy against PE-induced contraction (primary pulmonary SMCs; SIN at 100 μM): extremely effective; in vitro efficacy against PE-induced contraction (primary pulmonary SMCs; [4]): not effective
6 | – | quinine [reference compound] | – | – | 9 | –
